# ChEMBL document CHEMBL1201862, “PubChem BioAssay data set” (2004)
# Calls of active or inactive are those of the source.
# Experiments:
# [1] = toxicity to human HepG2 hepatoma cells – cell-based, plate reader, dry powder samples, cytotoxicity control, dose response (AID 1159569); format: functional;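 note: inhibitor potency with signal falling toward the positive control level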
# [2] = growth inhibition of yeast DHODH-expressing 3D7 parasites – SYBR Green, dry powder samples, dose response (AID 1159570); format: functional, cell-based;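 note: parasite growth measured after 72 hours of compound exposure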
# [3] = growth inhibition of PfATP4-mutant resistant parasites – NITD609-resistant line, SYBR Green, dry powder, dose response (AID 1159571); format: functional, cell-based;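 note: parasites synchronized at ring stage by sorbitol before testing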
# [4] = Dd2 malaria parasite growth inhibition potency – SYBR Green, dry powder samples, dose response (AID 1159566); format: functional, cell-based;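 note: potency for growth inhibition with lower SYBR green DNA signal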
# [5] = viability loss in HepG2 hepatoma cells – cell-based, ATP luminescence, cherry-pick, activator set 2, cytotoxicity control, dose response (AID 1053143); format: functional
# [6] = P. falciparum Dd2 growth inhibitors, dose response, SYBR Green, cherry-picked samples (AID 1159567); format: functional, cell-based
# [7] = toxicity to human hepatoma HepG2 cells – cell-based, cherry-picked samples, cytotoxicity control, dose response (AID 1159577); format: functional
# [8] = blockers of bursicon-stimulated LGR2 cAMP reporter – cell-based, HEK293, CRE-luciferase reporter, cherry pick, set 2, dose response (AID 743343); format: functional;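 note: transfected cells were stimulated with diluted bursicon conditioned medium after compound addition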
# [9] = blockade of melanocortin 4 receptor signaling – cell-based, plate reader, cherry pick, counter-screen for LGR2 antagonist project, dose response (AID 743444); format: functional;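 note: transfected HEK 293 cells stimulated with alpha-MSH peptide; potency of inhibitors of the alpha-MSH evoked signal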
# [10] = toxicity toward HepG2 liver cells – cell-based, plate reader, cherry-pick, antagonist series, cytotoxicity control, dose response (AID 743416); format: functional
# [11] = viability loss in HEK293 cells – cell-based, plate reader, cherry-picked samples, cytotoxicity control, dose response (AID 743446); format: functional
# [12] = molecular target: Ras and Rab interactor 1/Tyrosine-protein kinase ABL1 (Homo sapiens, UniProt P00519+Q13671); format: functional;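 note: biochemical TR-FRET dose-response test measuring inhibition of binding between Rin1 and Abl proteins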
# [13] = A549 cell cytotoxicity, dose response, cytotoxicity control, plate reader, cherry-pick, antagonist series (AID 743412); format: functional, cell-based
# [14] = molecular target: T1, Ubiquitin-conjugating enzyme E2 N (Homo sapiens, UniProt P61088); format: functional;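 note: Dose-response confirmation in a TR-FRET assay detecting UBC13-driven polyubiquitin chain formation, inhibition measured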
# T1 sequence (P61088 whole entry): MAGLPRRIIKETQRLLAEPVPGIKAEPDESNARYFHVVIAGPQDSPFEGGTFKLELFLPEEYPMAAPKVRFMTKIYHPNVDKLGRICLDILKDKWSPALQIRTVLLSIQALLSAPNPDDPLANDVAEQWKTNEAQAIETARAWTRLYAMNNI
# Major prion protein = Major prion protein (Homo sapiens, UniProt P04156); format: functional, cell-based
structure (smiles),measurement,setting,value
C[C@H]1CN([C@@H](C)CO)S(=O)(=O)c2ccc(C#CC3CCCCC3)cc2O[C@H]1CN(C)C,AC50,[1],> 100 µM (inactive)
same,AC50,[2],8.69 µM (active)
same,AC50,[3],2.42 µM (active)
same,AC50,[4],4.6 µM (active)
Cc1occc1-c1nnc(SC(C)C(=O)Nc2ccccc2F)o1 (stereo not given),AC50,[5],19.3 µM (active)
Cc1nc(N2[C@H](CO)[C@H](c3ccccc3)[C@H]2CNCC2CCCCC2)sc1C,AC50,[6],1.13 µM (active)
same,AC50,[7],> 42 µM (inactive)
same,AC50,[1],71.2 µM (active)
same,AC50,[2],1.03 µM (active)
same,AC50,[3],0.691 µM (active)
same,AC50,[4],0.595 µM (active)
CCOC(=O)c1ccc(NC(=O)COc2ccccc2CNCCc2ccccc2)cc1,AC50,[8],17.4 µM (active)
same,AC50,[9],27.7 µM (active)
same,AC50,[10],13.9 µM (active)
same,AC50,[11],15.4 µM (active)
same,IC50,[12],25.9 µM (inactive)
same,AC50,[13],10 µM (active)
Cc1ccc(NC(=O)CSc2ncnc3ccccc23)cc1S(=O)(=O)N1CCOCC1,IC50,cells,> 138 µM (inactive)
same,IC50,[14],> 20 µM (inactive)
same,IC50,Major prion protein,8.72 µM (active)
